Like-named read-outs stand apart in the source and are kept apart here.
Tests used:
Test in all cases: MIC on nutrient agar and synergistic index (Kull)
Type in all cases: cell-based
Stachybotris chartarum = tested on: Stachybotris chartarum
From the text: (§1) The term synergism is used when the action of a combination of antimicrobial substances is being evaluated.
(§2) The synergism found for the mixtures according to the invention can be determined via the following mathematical formula (cf. F. C. Kull, P. C. Elisman, H. D. Sylwestrowicz and P. K. Mayer, Appl. Microbiol. 9, 538 (1961):
(§3) Qa=amount of component A in the active substance mixture which achieves the desired effect, i. e. no microbial growth,
(§4) QA=amount of component A which, when used alone, suppresses the growth of the microorganisms,
(§5) Qb=amount of component B in the active substance mixture which suppresses the growth of the microorganisms,
(§6) QB=amount of component B which, when used alone, suppresses the growth of the microorganisms
(§7) If the sum of the ratios for a mixture Qa/QA+Qb/QB=1, additivity is indicated; if it is <1, synergism has occurred; a value of >1 is indicative of antagonism.
(§8) To determine the antimicrobial efficacy and synergy of active ingredients mixtures, the Minimum Inhibitory Concentration (MIC) of the active substances and their respective combinations were determined. The Minimum Inhibitory Concentration of a given antimicrobial compound or mixture is the lowest concentration expressed in […] that under defined in vitro conditions inhibits the growth of a given micro-organism (for example bacteria, mould fungi, yeasts). The growth of the microorganisms is observed on petri dishes containing a defined nutrient agar.
(§9) The antimicrobial efficacy and synergy of combinations based on TBZ, PYM and FDL were determined.

Aureobasidium pullulans = tested on: Aureobasidium pullulans
From the text: as §1, §2, §3, §4, §5, §6, §7, §8, §9

Alternaria alternata = tested on: Alternaria alternata
From the text: as §1, §2, §3, §4, §5, §6, §7, §8, §9

Paecilomyces variotii = tested on: Paecilomyces variotii
From the text: as §1, §2, §3, §4, §5, §6, §7, §8, §9

Chaetomium globosum = tested on: Chaetomium globosum
From the text: as §1, §2, §3, §4, §5, §6, §7, §8, §9

[1] = Stachybotris chartarum, nutrient agar, read-out: MIC

Row | Compound | MIC (Stachybotris chartarum; [1]) [µg/mL] | MIC (Aureobasidium pullulans; nutrient agar, read-out: MIC) [µg/mL] | MIC (Alternaria alternata; nutrient agar, read-out: MIC) [µg/mL] | MIC (Paecilomyces variotii; nutrient agar, read-out: MIC) [µg/mL] | MIC (Chaetomium globosum; nutrient agar, read-out: MIC) [µg/mL] | MIC (Stachybotris chartarum) [µg/mL] | MIC (Aureobasidium pullulans) [µg/mL] | MIC (Alternaria alternata) [µg/mL] | MIC (Paecilomyces variotii) [µg/mL] | MIC (Chaetomium globosum) [µg/mL]
1 | Cc1cc(C)nc(Nc2ccccc2)n1 [PYM, pyrimethanil] | 100 | 175 | 25 | 90 | 250 |  |  |  |  | 
2 | N#Cc1c[nH]cc1-c1cccc2c1OC(F)(F)O2 [FDL, fludioxonil] |  |  |  |  |  | 5 | 1500 | 5 | 175 | 1500
3 | c1ccc2[nH]c(-c3cscn3)nc2c1 [TBZ, thiabendazole] | 50 | 5 | 250 | 5 | 5 |  |  |  |  | 

Reference: patent publication US12369584B2, “Fungicide mixtures” (LANXESS Deutschland GmbH, priority 2019, dated 2025)
